The test system of data set [1] is Enterobacter cloacae. The data set is described as follows: Effect on growth of Enterobacter cloacae isolate 15 after 24 hrs by broth microdilution method. The data set is classed as organism-based. (In general: Dilution methods test growth across graded concentrations, often in twofold steps.)
The test system of the next data set is Proteus mirabilis. The experiment in a line: Inhibition of IMP4 in Proteus mirabilis isolate 19 assessed as potentiation of meropenem-induced antibacterial activity by measuring meropenem MIC after 24 hrs by broth microdilution method (reference value: 320 ug/ml).
The subject of data set [2] is Escherichia coli. The experiment in a line: Inhibition of IMP4 in Escherichia coli isolate 14 assessed as potentiation of meropenem-induced antibacterial activity by measuring meropenem MIC after 24 hrs by broth microdilution method (reference value: 16 ug/ml).
Data set [3] has as its system HeLa. The data set is described as follows: Cytotoxicity against human HeLa cells at 64 ug/mL after 24 hrs by calcein AM/propidium iodide staining based fluorescence microscopic method. The data set is classed as cell-based.
Data set [4] relates to Enterobacter cloacae. The data set is described as follows: Inhibition of NDM1 in Enterobacter cloacae isolate 6 assessed as potentiation of meropenem-induced antibacterial activity by measuring meropenem MIC after 24 hrs by broth microdilution assay (reference value: 320 ug/ml).
The test system of data set [5] is Enterobacter cloacae. The experiment in a line: Inhibition of IMP4 in Enterobacter cloacae clinical isolate 15 assessed as potentiation of meropenem-induced antibacterial activity by measuring reduction in meropenem MIC after 24 hrs by broth microdilution method (reference value: 32 ug/ml).
Data set [6] has as its system Escherichia coli ATCC 25922. The experiment in a line: Inhibition of IMP-4 in Escherichia coli ATCC 25922 assessed as potentiation of meropenem-induced antibacterial activity by measuring diameter of inhibition zone measured after 18 hrs by agar disk diffusion method. For orientation: In agar diffusion tests the substance spreads into inoculated agar from a disc or well.

Data set [7] has as its target T1, Metallo-beta-lactamase NDM-4 (Escherichia coli) (UniProt H6WZS9).
T1 sequence (whole entry): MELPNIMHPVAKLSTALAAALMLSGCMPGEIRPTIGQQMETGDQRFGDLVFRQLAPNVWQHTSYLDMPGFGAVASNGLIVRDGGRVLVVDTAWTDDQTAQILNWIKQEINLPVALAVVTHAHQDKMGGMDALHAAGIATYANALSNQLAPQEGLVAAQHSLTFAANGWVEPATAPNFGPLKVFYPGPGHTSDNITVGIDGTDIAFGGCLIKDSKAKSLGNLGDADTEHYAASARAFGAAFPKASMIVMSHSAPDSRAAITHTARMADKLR
The data set is described as follows: Inhibition of NDM4 in Escherichia coli ATCC 25922 assessed as potentiation of meropenem-induced antibacterial activity by measuring diameter of inhibition zone measured after 18 hrs by agar disk diffusion method.

The subject of data set [8] is Escherichia coli. The experiment in a line: Inhibition of NDM-7 in Escherichia coli isolate 2 assessed as potentiation of meropenem-induced antibacterial activity by measuring meropenem MIC after 24 hrs by broth microdilution assay (reference value: 640 ug/ml).
Data set [9] relates to Klebsiella pneumoniae. The experiment in a line: Inhibition of IMP4 in Klebsiella pneumoniae isolate 17 assessed as potentiation of meropenem-induced antibacterial activity by measuring meropenem MIC after 24 hrs by broth microdilution method (reference value: 32 ug/ml).
For data set [10], the system named is Escherichia coli. The experiment in a line: Effect on growth of Escherichia coli isolate 9 after 24 hrs by broth microdilution assay. The data set is classed as organism-based.
For data set [11], the system named is Escherichia coli. The data set is described as follows: Effect on growth of Escherichia coli isolate 18 after 24 hrs by broth microdilution method. It counts as organism-based.
Data set [12] relates to Stenotrophomonas maltophilia. The experiment in a line: Potency index, ratio of EDTA IC50 to test compound IC50 for Stenotrophomonas maltophilia NDM1 expressed in Escherichia coli BL21 (DE3) expressing measured after 15 minutes at interval of 60s.
In data set [13] the test system is Escherichia coli. The experiment in a line: Inhibition of NDM1 in Escherichia coli isolate 1 assessed as potentiation of meropenem-induced antibacterial activity by measuring meropenem MIC after 24 hrs by broth microdilution assay (reference value: 1280 ug/ml).
The nature of data set [14]: Cytotoxicity against human HeLa cells assessed as inhibition of growth at 1000 ug/mL after 24 hrs by CCK8 assay relative to control. The data set is classed as cell-based. The conditions noted are these: read-out: GI. For orientation: Formazan colour is commonly taken as a measure of viable cells.
Data set [15] relates to Enterobacter cloacae. The experiment in a line: Effect on growth of Enterobacter cloacae isolate 6 after 24 hrs by broth microdilution assay. It counts as organism-based.
In data set [16] the test system is HeLa. The experiment in a line: Cytotoxicity against human HeLa cells assessed as inhibition of growth after 24 hrs by CCK8 assay. The data set is classed as cell-based.
Data set [17] addresses T1, Metallo-beta-lactamase NDM-4 (Escherichia coli). The data set is described as follows: Inhibition of NDM4 in Escherichia coli isolate 3 assessed as potentiation of meropenem-induced bactericidal activity by measuring bacterial killing in late exponential phase at 64 ug/ml incubated for 24 hrs followed by replating on agar plates for 16 to 18 hrs and measured up to 24 hrs by time kill assay. The conditions noted are these: TDE = time-dependent effect.

Data set [18] can be described thus: Non-competitive inhibition of bacterial NDM1 (G28 to R270 residues) expressed in Escherichia coli BL21 (DE3) using varying levels of MEPM as substrate preincubated for 15 mins followed by substrate addition measured at 60 secs interval up to 60 mins by Lineweaver-Burk plot analysis. Also on record: species or system Bacteria.
Data set [19] has as its system Klebsiella pneumoniae. The data set is described as follows: Inhibition of IMP4 in Klebsiella pneumoniae isolate 10 assessed as potentiation of meropenem-induced antibacterial activity by measuring meropenem MIC after 24 hrs by broth microdilution method (reference value: 64 ug/ml).
Data set [20] has as its system Escherichia coli. The data set is described as follows: Effect on growth of NDM4-positive Escherichia coli assessed as bacterial growth at 64 ug/mL after 24 hrs by broth microdilution method relative to control. The data set is classed as organism-based.
Data set [21] can be described thus: Competitive inhibition of bacterial NDM1 (G28 to R270 residues) expressed in Escherichia coli BL21 (DE3) using varying levels of MEPM as substrate preincubated for 15 mins followed by substrate addition measured at 60 secs interval up to 60 mins by Lineweaver-Burk plot analysis. Also on record: species or system Bacteria.
In data set [22] the target is T1, Metallo-beta-lactamase NDM-4 (Escherichia coli). The data set is described as follows: Inhibition of NDM4 in Escherichia coli isolate 3 assessed as potentiation of meropenem-induced bactericidal activity by measuring bacterial killing at 64 ug/ml incubated for 24 hrs followed by replating on agar plates for 16 to 18 hrs and measured up to 24 hrs by time kill assay relative to control.

Data set [23] has the same target. The data set is described as follows: Inhibition of NDM4 in Escherichia coli isolate 3 assessed as potentiation of meropenem-induced bactericidal activity by measuring log reduction in bacterial colonies at 64 ug/ml incubated for 24 hrs followed by replating on agar plates for 16 to 18 hrs and measured up to 24 hrs by time kill assay.
The test system of data set [24] is HeLa. The experiment in a line: Cytotoxicity against human HeLa cells at 128 ug/mL after 24 hrs by calcein AM/propidium iodide staining based fluorescence microscopic method. The data set is classed as cell-based.

In brackets after ≈: the same amount, converted by molar mass.

What is called IC50 is the concentration needed to halve the response being measured. For orientation: Ki means the equilibrium dissociation constant of an inhibitor or competing ligand from its target. A low value points to a stronger hold on the target. With `COc1ccc(CN(CCN(Cc2ccc(OC)cc2)Cc2cccc(C(=O)O)n2)Cc2cccc(C(=O)O)n2)cc1`, the MIC against Enterobacter cloacae [1] came to 32 µg/mL (≈ 56.1 µM); with Proteus mirabilis it was 2 µg/mL; in the data set on Escherichia coli [2], 4 µg/mL; with Enterobacter cloacae [4], 2 µg/mL; in the data set on Escherichia coli [8], 0.0625 µg/mL; in the data set on Klebsiella pneumoniae [9] it was 8 µg/mL. Further, the MIC against Escherichia coli [10] is 32 µg/mL (≈ 56.1 µM); in the data set with Escherichia coli [11] it was 32 µg/mL (≈ 56.1 µM); in the data set with Escherichia coli [13], 0.125 µg/mL; in the data set with Enterobacter cloacae [15] it was 32 µg/mL (≈ 56.1 µM); in the data set with Klebsiella pneumoniae [19] it was 1 µg/mL. Moreover, the figures for the Activity entry in the data set with HeLa [3] and in the data set with Escherichia coli [20] were “Non-Toxic” and 95%, respectively. The fold change (FC) with Enterobacter cloacae [5] is 64. Also, the inhibition zone (IZ) in data set [6] and in [7] was 2 to 5 mm each time. Besides, the Ratio IC50 in data set [12] came to 200. Besides, the inhibition at 24 h, 1000 ug/mL in data set [14] was less than 50%. Further, the half-inhibitory concentration (IC50) in the data set with HeLa [16] is more than 1000 µg/mL. Also, the inhibition entry in data set [17] is “Tde”. Moreover, the Ki in data set [18] amounted to 144 nM.

As for `O=C(O)c1cccc(CNCCNCc2cccc(C(=O)O)n2)n1`, the Ki in data set [21] came out at 680 nM. Also, the MIC in the data set on Enterobacter cloacae [1] came out at 32 µg/mL (≈ 96.9 µM); with Proteus mirabilis, 2 µg/mL; with Escherichia coli [2], 4 µg/mL; in the data set with Enterobacter cloacae [4], 2 µg/mL; in the data set with Escherichia coli [8] it was 0.125 µg/mL; with Klebsiella pneumoniae [9], 8 µg/mL. Further, the MIC against Escherichia coli [10] amounted to 32 µg/mL (≈ 96.9 µM); with Escherichia coli [11], 32 µg/mL (≈ 96.9 µM); with Escherichia coli [13] it was 0.125 µg/mL; against Enterobacter cloacae [15], 32 µg/mL (≈ 96.9 µM); in the data set with Klebsiella pneumoniae [19] it was 0.5 µg/mL. Also, the fold change (FC) with Enterobacter cloacae [5] turned out to be 64. Further, the inhibition zone (IZ) in data set [6] and in data set [7] was 2 to 5 mm throughout. In addition, the inhibition at 24 h, 1000 ug/mL in data set [14] was less than 50%. Also, in the data set with HeLa [16], the IC50 is more than 1000 µg/mL. For the same compound, the inhibition in [22] is 99.9%; in [17], “Tde”. In addition, in data set [23], the FC amounted to 3. Moreover, the Activity entry in the data set with HeLa [24] is given as “Non-Toxic”; in the data set with Escherichia coli [20] it was 95%.

(Values after ChEMBL document CHEMBL4387701, “H2depda: An acyclic adjuvant potentiates meropenem activity in vitro against metallo-β-lactamase-producing enterobacterales” (Eur J Med Chem, 2019).)
